“Also recorded” adds a separate entry of the source. Positions of bridges follow the written chain, without caps; N, C: chain ends. Residues, ends and D or L forms follow the SMILES beside them.
Legend:
[1] = target: T1, human TRPA1 (Homo sapiens, UniProt O75762); assay: Inhibition of AITC-induced currents through human TRPA1 in X. laevis oocytes (electrophysiology); format: cell-based; conditions: for residual current (inhibited currents to): human TRPA1, toxin 10 μM, 100 μM AITC, normalized to response without ProTx-I (100%), n = 3–6 oocytes
T1 construct: expressed in transfected cells; host or cells: Xenopus laevis oocytes (mRNA injection)
T1 sequence (O75762 whole entry): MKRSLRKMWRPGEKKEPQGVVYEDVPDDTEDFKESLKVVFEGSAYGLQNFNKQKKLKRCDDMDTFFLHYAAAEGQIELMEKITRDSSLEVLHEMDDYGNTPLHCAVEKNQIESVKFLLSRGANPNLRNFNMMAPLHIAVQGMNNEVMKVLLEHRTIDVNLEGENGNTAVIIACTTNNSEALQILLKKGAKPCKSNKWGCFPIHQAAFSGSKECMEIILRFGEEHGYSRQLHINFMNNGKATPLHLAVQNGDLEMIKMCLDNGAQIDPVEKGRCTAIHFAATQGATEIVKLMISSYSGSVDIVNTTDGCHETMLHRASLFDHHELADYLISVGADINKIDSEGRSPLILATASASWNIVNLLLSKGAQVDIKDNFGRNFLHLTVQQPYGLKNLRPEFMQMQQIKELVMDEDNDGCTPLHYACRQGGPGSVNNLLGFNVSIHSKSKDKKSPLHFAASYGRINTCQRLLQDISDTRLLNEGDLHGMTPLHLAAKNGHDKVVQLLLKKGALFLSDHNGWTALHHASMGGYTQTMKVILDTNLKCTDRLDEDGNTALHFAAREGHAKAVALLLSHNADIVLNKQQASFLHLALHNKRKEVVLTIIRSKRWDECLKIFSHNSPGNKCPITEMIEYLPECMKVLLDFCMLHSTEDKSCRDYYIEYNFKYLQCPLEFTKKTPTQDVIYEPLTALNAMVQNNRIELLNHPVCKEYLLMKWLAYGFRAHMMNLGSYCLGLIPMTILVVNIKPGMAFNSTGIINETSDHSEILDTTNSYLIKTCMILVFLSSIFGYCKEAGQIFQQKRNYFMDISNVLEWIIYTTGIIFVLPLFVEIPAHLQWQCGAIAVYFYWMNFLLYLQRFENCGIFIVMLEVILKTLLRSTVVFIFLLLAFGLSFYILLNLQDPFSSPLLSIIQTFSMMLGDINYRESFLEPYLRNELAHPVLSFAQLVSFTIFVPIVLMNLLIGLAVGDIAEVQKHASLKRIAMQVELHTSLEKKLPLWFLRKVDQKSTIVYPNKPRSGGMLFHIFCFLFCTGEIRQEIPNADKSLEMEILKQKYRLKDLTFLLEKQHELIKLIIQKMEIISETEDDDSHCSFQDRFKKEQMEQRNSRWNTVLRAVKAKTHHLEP
Description: (§1) Currents through human and rat TRPA1 [21] were recorded in X. laevis oocytes expressing these channels. Oocyte isolation, mRNA injection, and experimental recordings have been described previously. All solutions were prepared on the day of the experiment using calcium-free ND-96 containing 96 mM NaCl, 2 mM KCl, 1 mM MgCl2 , and 10 mM HEPES at pH 7.4. Currents were stimulated by the application 100 μM AITC (Sigma-Aldrich). The solution was manually added to the perfusion chamber, and the currents were recorded using voltage ramps as reported in [22]. For each oocyte, we sequentially recorded three responses to AITC application, as well as the subsequent leakage current in the presence of a specific TRPA1 inhibitor: HC030031 (Sigma-Aldrich). The first response amplitude was used to normalize the data obtained on different oocytes. To induce the second response, AITC was applied together with ProTx-I or HC030031. The amplitude of this response was measured, normalized, averaged across different oocytes, and used to plot dose-response curves. Dose-response curves were approximated by the Hill equation: […]
where nH is the Hill coefficient.
Statistical data processing was performed using GraphPad Prism 9.0. To compare current amplitudes at specific toxin concentrations, either a two-tailed Student’s t-test or one-way ANOVA and Dunnett’s multiple comparison test was used. Dose-response curve parameters were compared using the F-test.
Fig. 4 Effect of ProTx-I variants on AITC-induced outward currents through TRPA1 in X. laevis oocytes. (A) Average normalized current traces for the human TRPA1 channel in the absence and presence of the selective antagonist HC030031 or ProTx-I. Data are presented as mean ± SEM (lines and shaded areas, respectively, n = 3–6 oocytes). Compound application periods are shown by solid black bars above the traces. […] (C) Dose-response curves for recombinant rProTx-I at human (hTRPA1) and rat (rTRPA1) ion channels. […] Data in B and C (mean ± SEM, n = 3–6 oocytes) are normalized to the response recorded without ProTx-I (100%)

[2] = target: T2, rat TRPA1 (Rattus norvegicus, UniProt Q6RI86); assay: Inhibition of AITC-induced currents through rat TRPA1 in X. laevis oocytes (electrophysiology); format: cell-based
T2 construct: expressed in transfected cells; host or cells: Xenopus laevis oocytes (mRNA injection)
T2 sequence (Q6RI86 whole entry): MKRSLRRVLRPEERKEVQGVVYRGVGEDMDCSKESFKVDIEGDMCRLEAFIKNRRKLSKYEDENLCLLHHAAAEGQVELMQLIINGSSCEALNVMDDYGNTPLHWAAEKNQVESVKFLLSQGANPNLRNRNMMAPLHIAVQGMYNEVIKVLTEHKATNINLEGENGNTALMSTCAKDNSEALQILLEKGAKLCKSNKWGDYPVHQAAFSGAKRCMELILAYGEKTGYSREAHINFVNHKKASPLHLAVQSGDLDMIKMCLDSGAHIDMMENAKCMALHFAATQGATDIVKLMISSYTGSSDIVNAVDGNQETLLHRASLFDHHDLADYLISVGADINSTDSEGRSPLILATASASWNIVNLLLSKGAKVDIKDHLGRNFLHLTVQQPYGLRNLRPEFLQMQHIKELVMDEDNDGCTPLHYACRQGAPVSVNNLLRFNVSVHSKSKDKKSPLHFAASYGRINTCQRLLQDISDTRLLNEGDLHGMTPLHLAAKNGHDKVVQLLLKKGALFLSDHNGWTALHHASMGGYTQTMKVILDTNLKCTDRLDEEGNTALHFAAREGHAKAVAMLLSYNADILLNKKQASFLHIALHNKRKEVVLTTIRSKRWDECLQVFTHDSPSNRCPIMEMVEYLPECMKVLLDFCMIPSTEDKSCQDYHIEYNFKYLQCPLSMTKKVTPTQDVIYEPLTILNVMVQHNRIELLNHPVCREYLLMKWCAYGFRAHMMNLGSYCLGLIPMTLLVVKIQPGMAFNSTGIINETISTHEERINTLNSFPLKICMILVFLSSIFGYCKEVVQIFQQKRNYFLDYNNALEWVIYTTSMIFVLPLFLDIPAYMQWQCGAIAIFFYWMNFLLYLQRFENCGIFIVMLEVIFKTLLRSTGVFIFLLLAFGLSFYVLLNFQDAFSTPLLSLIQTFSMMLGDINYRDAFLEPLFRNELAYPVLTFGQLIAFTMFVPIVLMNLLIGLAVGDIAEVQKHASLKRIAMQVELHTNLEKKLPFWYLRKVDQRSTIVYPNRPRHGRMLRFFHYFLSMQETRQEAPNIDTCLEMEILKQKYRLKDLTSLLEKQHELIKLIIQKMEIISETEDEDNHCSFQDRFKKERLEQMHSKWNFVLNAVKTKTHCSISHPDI
Description: as §1
where nH is the Hill coefficient. […]
Fig. 4 Effect of ProTx-I variants on AITC-induced outward currents through TRPA1 in X. laevis oocytes. […] Data in B and C (mean ± SEM, n = 3–6 oocytes) are normalized to the response recorded without ProTx-I (100%)

[3] = system: voltage-gated sodium (NaV), potassium, and calcium channels; conditions: cited from earlier work
From the text: Due to its action at the NaV1.7, NaV1.8, and TRPA1 channels involved in pain perception and propagation, ProTx-I may be used as a model for the development of next-generation analgesics. ProTx-I consists of 35 amino acid residues, with three disulfide bonds forming an inhibitor cystine knot (ICK) motif, which challenges its heterologous production. An efficient Pro ... || Spider knottins include membrane-active toxins that affect the activation or inactivation of sodium (NaV), potassium, and calcium voltage-gated channels (so-called gating modifier toxins). The ProTx-I toxin (Protoxin-I or β/ω-theraphotoxin-Tp1a, 35 aa) is a membrane-active knottin of the Peruvian green velvet tarantula Thrixopelma pruriens. […] Among the ProTx-I targets, NaV1.7, NaV1.8, and TRPA1 channels are promising therapeutic targets for the treatment of pain and neu ...

[4] = target: T1, human TRPA1; conditions: cited from earlier work
From the text: In the present study, we compared the functional activity of Met-ProTx-I and ProTx-I, with the latter being produced by hydrolysis of 6His-Met-ProTx-I, at the human TRPA1 channel expressed in X. laevis oocytes.

CC(C)c1ccc(NC(=O)Cn2cnc3c2c(=O)n(C)c(=O)n3C)cc1 [HC030031]
inhibition of current through TRPA1 (in words) [1]: This effect was similar to that of 50 μM HC0300301

CSCC[C@H](N)C(=O)N[C@@H](CCC(=O)O)C(=O)N[C@H]1CSSC[C@@H]2NC(=O)[C@@H]3CSSC[C@@H](C(=O)N[C@H](C(=O)N[C@@H](Cc4c[nH]c5ccccc45)C(=O)N[C@@H](CC(=O)O)C(=O)NCC(=O)N[C@H](C(=O)N[C@@H](Cc4ccccc4)C(=O)N[C@@H](CO)C(=O)O)[C@@H](C)O)C(C)C)NC(=O)[C@H](Cc4c[nH]c5ccccc45)NC(=O)CNC(=O)[C@H](Cc4c[nH]cn4)NC(=O)[C@H](CCCNC(=N)N)NC(=O)[C@H](CCCNC(=N)N)NC(=O)[C@H](CO)NC(=O)[C@H](CSSC[C@H](NC(=O)CNC(=O)CNC(=O)[C@H](CC(C)C)NC(=O)[C@H](Cc4c[nH]c5ccccc45)NC(=O)[C@H](Cc4ccc(O)cc4)NC(=O)[C@H](CCCNC(=N)N)NC1=O)C(=O)N[C@@H](CO)C(=O)N[C@@H](C)C(=O)NCC(=O)N[C@@H](CCC(N)=O)C(=O)N[C@@H]([C@@H](C)O)C(=O)N3)NC(=O)[C@H](C(C)C)NC(=O)[C@H](CC(C)C)NC(=O)[C@H](Cc1c[nH]cn1)NC(=O)[C@H](CCCCN)NC2=O [Met-ProTx-I] (H-MECRYWLGGCSAGQTCCKHLVCSRRHGWCVWDGTFS-OH; disulfide 3-17, 10-22, 16-29)
IC50 [1]: 8900 ± 7000 nM | residual current (inhibited currents to) [1]: ~ 60%

CC(C)C[C@@H]1NC(=O)[C@H](Cc2c[nH]c3ccccc23)NC(=O)[C@H](Cc2ccc(O)cc2)NC(=O)[C@H](CCCNC(=N)N)NC(=O)[C@@H](NC(=O)[C@@H](N)CCC(=O)O)CSSC[C@@H]2NC(=O)[C@@H]3CSSC[C@@H](C(=O)N[C@H](C(=O)N[C@@H](Cc4c[nH]c5ccccc45)C(=O)N[C@@H](CC(=O)O)C(=O)NCC(=O)N[C@H](C(=O)N[C@@H](Cc4ccccc4)C(=O)N[C@@H](CO)C(=O)O)[C@@H](C)O)C(C)C)NC(=O)[C@H](Cc4c[nH]c5ccccc45)NC(=O)CNC(=O)[C@H](Cc4c[nH]cn4)NC(=O)[C@H](CCCNC(=N)N)NC(=O)[C@H](CCCNC(=N)N)NC(=O)[C@H](CO)NC(=O)[C@H](CSSC[C@H](NC(=O)CNC(=O)CNC1=O)C(=O)N[C@@H](CO)C(=O)N[C@@H](C)C(=O)NCC(=O)N[C@@H](CCC(N)=O)C(=O)N[C@@H]([C@@H](C)O)C(=O)N3)NC(=O)[C@H](C(C)C)NC(=O)[C@H](CC(C)C)NC(=O)[C@H](Cc1c[nH]cn1)NC(=O)[C@H](CCCCN)NC2=O [ProTx-I (Smartox)]
IC50 [1]: 410 ± 160 nM | residual current (inhibited currents to) [1]: ~ 5%

CC(C)C[C@@H]1NC(=O)[C@H](Cc2c[nH]c3ccccc23)NC(=O)[C@H](Cc2ccc(O)cc2)NC(=O)[C@H](CCCNC(=N)N)NC(=O)[C@@H](NC(=O)[C@@H](N)CCC(=O)O)CSSC[C@@H]2NC(=O)[C@@H]3CSSC[C@@H](C(=O)N[C@H](C(=O)N[C@@H](Cc4c[nH]c5ccccc45)C(=O)N[C@@H](CC(=O)O)C(=O)NCC(=O)N[C@H](C(=O)N[C@@H](Cc4ccccc4)C(=O)N[C@@H](CO)C(=O)O)[C@@H](C)O)C(C)C)NC(=O)[C@H](Cc4c[nH]c5ccccc45)NC(=O)CNC(=O)[C@H](Cc4c[nH]cn4)NC(=O)[C@H](CCCNC(=N)N)NC(=O)[C@H](CCCNC(=N)N)NC(=O)[C@H](CO)NC(=O)[C@H](CSSC[C@H](NC(=O)CNC(=O)CNC1=O)C(=O)N[C@@H](CO)C(=O)N[C@@H](C)C(=O)NCC(=O)N[C@@H](CCC(N)=O)C(=O)N[C@@H]([C@@H](C)O)C(=O)N3)NC(=O)[C@H](C(C)C)NC(=O)[C@H](CC(C)C)NC(=O)[C@H](Cc1c[nH]cn1)NC(=O)[C@H](CCCCN)NC2=O [rProTx-I]
IC50 [1]: 840 ± 190 nM | residual current (inhibited currents to) [1]: ~ 5% | IC50 ([2]; rTRPA1 in X. laevis oocytes, outward currents induced by 100 μM AITC, calcium-free ND-96, pH 7.4, voltage ramps, Hill equation fit, n = 3–6 oocytes, rat vs human p = 0.006 (F-test)): 250 ± 70 nM

ProTx-I
species selectivity, rat versus human TRPA1 (in words) ([2]; rat versus human TRPA1, difference in IC50 p = 0.006 (F-test)): different activities relative to human and rat TRPA1 channels | inhibition of voltage-gated channels (in words) [3]: inhibits voltage-gated sodium (NaV), potassium, and calcium channels; also recorded: effectively inhibits a number of voltage-gated channels | species selectivity, human versus mouse TRPA1 (in words) [4]: higher activity at the human channel

— PMC12755868, “Recombinant Production, SpeciesSpecific Activity at the TRPA1 Channel, and Significance of the N-Terminal Residue of ProTx-I Toxin from Thrixopelma Pruriens Tarantula Venom” (Acta Naturae, 2025)
